Columns and labels:
Format in all cases: biochemical
[1] = biological target: T1, human Lck enzyme (Homo sapiens, UniProt P06239); assay: Lck enzyme inhibitory activity (time-resolved fluorometry, biotinylated peptide phosphorylation); details: read-out: LCK_IC50
T1 construct: purchased Carna Biosciences, Inc. 08-170
Method in brief: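 Readout pairs a europium cryptate-labelled anti-phosphotyrosine antibody with XL665-streptavidin, measured by time-resolved fluorescence. IC50 derived from percent inhibition against untreated controls.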

[2] = biological target: T2, human Yes1 enzyme (Homo sapiens, UniProt P07947); assay: Yes1 enzyme inhibitory activity (time-resolved fluorometry, biotinylated peptide phosphorylation); details: read-out: YES_IC50
T2 construct: made in house
Method in brief: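 Inhibition was expressed against a compound-free control to give IC50, using TR-FRET read-out (Eu-cryptate anti-pTyr antibody, streptavidin-XL665).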

[3] = biological target: T3, human Src enzyme (Homo sapiens, UniProt P12931); assay: Src enzyme inhibitory activity (time-resolved fluorometry, biotinylated peptide phosphorylation); details: read-out: SRC_IC50
T3 construct: purchased Carna Biosciences, Inc. 08-173
Method in brief: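 Compounds were tested for blocking tyrosine phosphorylation of a biotinylated peptide substrate by recombinant human Src. Phosphorylated product was quantified by time-resolved fluorometry using europium cryptate and XL665 conjugates, and IC50 was calculated against the compound-free control.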

T2 sequence (P07947 whole entry): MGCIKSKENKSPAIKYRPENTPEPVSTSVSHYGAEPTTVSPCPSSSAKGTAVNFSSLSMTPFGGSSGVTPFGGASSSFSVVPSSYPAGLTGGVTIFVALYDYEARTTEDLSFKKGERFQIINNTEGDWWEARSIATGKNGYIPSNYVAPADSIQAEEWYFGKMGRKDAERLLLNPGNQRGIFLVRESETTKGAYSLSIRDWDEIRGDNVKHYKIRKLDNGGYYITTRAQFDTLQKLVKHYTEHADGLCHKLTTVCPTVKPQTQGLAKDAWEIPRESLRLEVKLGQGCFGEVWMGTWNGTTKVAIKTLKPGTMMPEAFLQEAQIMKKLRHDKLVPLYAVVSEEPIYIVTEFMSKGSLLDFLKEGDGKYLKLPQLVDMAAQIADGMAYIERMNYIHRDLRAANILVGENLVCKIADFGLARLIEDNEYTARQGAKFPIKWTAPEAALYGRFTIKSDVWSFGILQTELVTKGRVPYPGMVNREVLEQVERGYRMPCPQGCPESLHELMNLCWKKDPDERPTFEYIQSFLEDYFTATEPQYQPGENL
T3 sequence (P12931 whole entry): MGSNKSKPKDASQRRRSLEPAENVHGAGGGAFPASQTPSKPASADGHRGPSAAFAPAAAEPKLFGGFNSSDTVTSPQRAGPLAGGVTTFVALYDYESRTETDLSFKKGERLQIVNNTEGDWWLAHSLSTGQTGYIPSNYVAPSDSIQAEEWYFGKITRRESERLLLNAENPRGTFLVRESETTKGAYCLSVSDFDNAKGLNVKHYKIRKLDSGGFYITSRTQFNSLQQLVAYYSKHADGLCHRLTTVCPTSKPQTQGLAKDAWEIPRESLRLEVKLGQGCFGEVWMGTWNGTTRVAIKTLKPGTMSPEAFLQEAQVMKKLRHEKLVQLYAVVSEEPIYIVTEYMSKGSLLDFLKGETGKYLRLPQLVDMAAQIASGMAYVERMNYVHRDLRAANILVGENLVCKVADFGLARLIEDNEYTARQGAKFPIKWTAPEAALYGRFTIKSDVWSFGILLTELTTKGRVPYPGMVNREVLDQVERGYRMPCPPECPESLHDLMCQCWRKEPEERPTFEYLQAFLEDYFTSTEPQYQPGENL
T1 sequence (P06239 whole entry): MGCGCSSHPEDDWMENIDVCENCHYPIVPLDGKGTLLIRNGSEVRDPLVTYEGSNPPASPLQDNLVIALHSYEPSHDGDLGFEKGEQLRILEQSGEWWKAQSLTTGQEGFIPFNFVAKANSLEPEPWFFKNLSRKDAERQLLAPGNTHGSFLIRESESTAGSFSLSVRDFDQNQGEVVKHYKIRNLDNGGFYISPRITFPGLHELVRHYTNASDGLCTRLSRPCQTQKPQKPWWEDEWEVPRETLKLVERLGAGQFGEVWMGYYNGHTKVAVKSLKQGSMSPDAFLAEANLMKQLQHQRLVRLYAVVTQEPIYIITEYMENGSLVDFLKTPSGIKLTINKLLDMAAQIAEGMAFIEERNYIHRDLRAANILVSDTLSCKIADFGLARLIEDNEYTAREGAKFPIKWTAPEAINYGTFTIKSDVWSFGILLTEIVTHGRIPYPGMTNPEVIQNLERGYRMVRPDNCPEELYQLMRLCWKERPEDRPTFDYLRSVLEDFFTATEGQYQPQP

Compound	IC50 [1] [nM]	IC50 [2] [nM]	IC50 [3] [nM]
Cc1cc(Oc2ccccc2F)ccc1-n1ncc(C(=O)c2cc3cc(OCC(F)F)c(N4C(=O)NC5(CCN(Cc6ccccc6)C5)C4=O)cc3[nH]2)c1N (stereo not drawn) [Example 5-1-355, 3-[2-[5-amino-1-[4-(2-fluorophenoxy)-2-methylphenyl]pyrazole-4-carbonyl]-5-(2,2-difluoroethoxy)-1H-indol-6-yl]-7-benzyl-1,3,7-triazaspiro[4.4]nonane-2,4-dione]	13	8	97
Cc1cc2cc(C(=O)c3cnn(-c4cnc(Oc5c(F)cccc5F)cc4C)c3N)[nH]c2cc1N1C(=O)NC2(CCNCC2)C1=O [Example 5-1-357, 3-[2-[5-amino-1-[6-(2,6-difluorophenoxy)-4-methylpyridin-3-yl]pyrazole-4-carbonyl]-5-methyl-1H-indol-6-yl]-1,3,8-triazaspiro[4.5] decane-2,4-dione]	4.4	2.3	39
Cc1cc2cc(C(=O)c3cnn(-c4cnc(Oc5c(F)cccc5F)cc4C)c3N)[nH]c2cc1N1C(=O)NC2(CCNC2)C1=O (stereo not drawn) [Example 5-1-358, 3-[2-[5-amino-1-[6-(2,6-difluorophenoxy)-4-methylpyridin-3-yl]pyrazole-4-carbonyl]-5-methyl-1H-indol-6-yl]-1,3,7-triazaspiro[4.4] nonane-2,4-dione]	4.2	1.8	21
Cc1cc(Oc2ccccc2F)ncc1-n1ncc(C(=O)c2cc3cc(SC(F)F)c(N4C(=O)NC(C)(C)C4=O)cc3[nH]2)c1N [Example 5-1-359, 3-[2-[5-amino-1-[6-(2-fluorophenoxy)-4-methylpyridin-3-yl]pyrazole-4-carbonyl]-5-(difluoromethylsulfanyl)-1H-indol-6-yl]-5,5-dimethylimidazolidine-2,4-dione]	25	6	130
Cc1cc2cc(C(=O)c3cnn(-c4cnc(Oc5c(F)cccc5F)cc4C)c3N)[nH]c2cc1N1C(=O)NC2(CCN(Cc3ccccc3)CC2)C1=O [Example 5-1-361, 3-[2-[5-amino-1-[6-(2,6-difluorophenoxy)-4-methylpyridin-3-yl]pyrazole-4-carbonyl]-5-methyl-1H-indol-6-yl]-8-benzyl-1,3,8-triazaspiro[4.5]decane-2,4-dione]	26	9.2	170
Cc1cc2cc(C(=O)c3cnn(-c4cnc(Oc5c(F)cccc5F)cc4C)c3N)[nH]c2cc1N1C(=O)NC2(CCN(Cc3ccccc3)C2)C1=O (stereo not drawn) [Example 5-1-363, 3-[2-[5-amino-1-[6-(2,6-difluorophenoxy)-4-methylpyridin-3-yl]pyrazole-4-carbonyl]-5-methyl-1H-indol-6-yl]-7-benzyl-1,3,7-triazaspiro[4.4]nonane-2,4-dione]	31	11	260
Cc1cc2cc(C(=O)c3cnn(-c4ccc(Oc5ccccc5F)cc4C)c3N)[nH]c2cc1N1C(=O)NC2(CCNC2)C1=O (stereo not drawn) [Example 5-1-365, 3-[2-[5-amino-1-[4-(2-fluorophenoxy)-2-methylphenyl]pyrazole-4-carbonyl]-5-methyl-1H-indol-6-yl]-1,3,7-triazaspiro[4.4]nonane-2,4-dione]	5.7	1.5	18
Cc1cc2cc(C(=O)c3cnn(-c4cnc(Oc5c(F)cccc5F)cc4C)c3N)[nH]c2cc1N1C(=O)NC2(CC2)C1=O [Example 5-1-366, 6-[2-[5-amino-1-[6-(2,6-difluorophenoxy)-4-methylpyridin-3-yl]pyrazole-4-carbonyl]-5-methyl-1H-indol-6-yl]-4,6-diazaspiro[2.4] heptane-5,7-dione]	9.9	3.7	39
Cc1cc(Oc2c(F)cccc2F)ncc1-n1ncc(C(=O)c2cc3cc(F)c(N4C(=O)NC5(CCOCC5)C4=O)cc3[nH]2)c1N [Example 5-1-368, 3-[2-[5-amino-1-[6-(2,6-difluorophenoxy)-4-methylpyridin-3-yl]pyrazole-4-carbonyl]-5-fluoro-1H-indol-6-yl]-8-oxa-1,3-diazaspiro[4.5] decane-2,4-dione]	8.7	3.8	62
Cc1cc(Oc2c(F)cccc2F)ncc1-n1ncc(C(=O)c2cc3cc(F)c(N4C(=O)NC(C)(C(F)(F)F)C4=O)cc3[nH]2)c1N (stereo not drawn) [Example 5-1-370, 3-[2-[5-amino-1-[6-(2,6-difluorophenoxy)-4-methylpyridin-3-yl]pyrazole-4-carbonyl]-5-fluoro-1H-indol-6-yl]-5-methyl-5-(trifluoromethyl)imidazolidine-2,4-dione]	27	8.3	150
Cc1cc2cc(C(=O)c3cnn(-c4ccc(Oc5ccccc5F)cc4C)c3N)[nH]c2cc1N1C(=O)NC2(CCC2)C1=O [Example 5-1-371, 7-[2-[5-amino-1-[4-(2-fluorophenoxy)-2-methylphenyl]pyrazole-4-carbonyl]-5-methyl-1H-indol-6-yl]-5,7-diazaspiro[3.4]octane-6,8-dione]	9.8	2	30
Cc1cc(Oc2ccccc2F)ccc1-n1ncc(C(=O)c2cc3cc(F)c(N4C(=O)NC5(CCC5)C4=O)cc3[nH]2)c1N [Example 5-1-374, 7-[2-[5-amino-1-[4-(2-fluorophenoxy)-2-methylphenyl]pyrazole-4-carbonyl]-5-fluoro-1H-indol-6-yl]-5,7-diazaspiro[3.4]octane-6,8-dione]	13	2.9	36
Cc1cc(Oc2ccccc2F)ccc1-n1ncc(C(=O)c2cc3cc(F)c(N4C(=O)NC5(CC5)C4=O)cc3[nH]2)c1N [Example 5-1-375, 6-[2-[5-amino-1-[4-(2-fluorophenoxy)-2-methylphenyl]pyrazole-4-carbonyl]-5-fluoro-1H-indol-6-yl]-4,6-diazaspiro[2.4]heptane-5,7-dione]	7.1	2	24

Further molecules by falling IC50 [1], results first:

IC50 [1] [nM]	IC50 [2] [nM]	IC50 [3] [nM]	Compound
79	22	560	Cc1cc(Oc2c(F)cccc2F)ncc1-n1ncc(C(=O)c2cc3cc(F)c(N4C(=O)NC5(CCCCC5)C4=O)cc3[nH]2)c1N [Example 5-1-369, 3-[2-[5-amino-1-[6-(2,6-difluorophenoxy)-4-methylpyridin-3-yl]pyrazole-4-carbonyl]-5-fluoro-1H-indol-6-yl]-1,3-diazaspiro[4.5]decane-2,4-dione]
16	5.6	77	Cc1cc2cc(C(=O)c3cnn(-c4cnc(Oc5c(F)cccc5F)cc4C)c3N)[nH]c2cc1N1C(=O)NC2(CCCC2)C1=O [Example 5-1-367, 3-[2-[5-amino-1-[6-(2,6-difluorophenoxy)-4-methylpyridin-3-yl]pyrazole-4-carbonyl]-5-methyl-1H-indol-6-yl]-1,3-diazaspiro[4.4] nonane-2,4-dione]
14	3.1	48	Cc1cc2cc(C(=O)c3cnn(-c4ccc(Oc5ccccc5F)cc4C)c3N)[nH]c2cc1N1C(=O)NC2(CCCC2)C1=O [Example 5-1-373, 3-[2-[5-amino-1-[4-(2-fluorophenoxy)-2-methylphenyl]pyrazole-4-carbonyl]-5-methyl-1H-indol-6-yl]-1,3-diazaspiro[4.4]nonane-2,4-dione]
6.5	2	29	Cc1cc2cc(C(=O)c3cnn(-c4cnc(Oc5c(F)cccc5F)cc4C)c3N)[nH]c2cc1N1C(=O)NC2(CCN(C3COC3)C2)C1=O (stereo not drawn) [Example 5-1-362, 3-[2-[5-amino-1-[6-(2,6-difluorophenoxy)-4-methylpyridin-3-yl]pyrazole-4-carbonyl]-5-methyl-1H-indol-6-yl]-7-(oxetan-3-yl)-1,3,7-triazaspiro[4.4]nonane-2,4-dione]
6.3	2.2	19	Cc1cc2cc(C(=O)c3cnn(-c4cnc(Oc5c(F)cccc5F)cc4C)c3N)[nH]c2cc1N1C(=O)NC2(CCN(C3COC3)CC2)C1=O [Example 5-1-360, 3-[2-[5-amino-1-[6-(2,6-difluorophenoxy)-4-methylpyridin-3-yl]pyrazole-4-carbonyl]-5-methyl-1H-indol-6-yl]-8-(oxetan-3-yl)-1,3,8-triazaspiro[4.5]decane-2,4-dione]
6.1	1.3	16	Cc1cc2cc(C(=O)c3cnn(-c4ccc(Oc5ccccc5F)cc4C)c3N)[nH]c2cc1N1C(=O)NC2(CC2)C1=O [Example 5-1-372, 6-[2-[5-amino-1-[4-(2-fluorophenoxy)-2-methylphenyl]pyrazole-4-carbonyl]-5-methyl-1H-indol-6-yl]-4,6-diazaspiro[2.4]heptane-5,7-dione]
5.4	1.3	18	Cc1cc2cc(C(=O)c3cnn(-c4ccc(Oc5ccccc5F)cc4C)c3N)[nH]c2cc1N1C(=O)NC2(CCNCC2)C1=O [Example 5-1-364, 3-(2-(5-amino-1-(4-(2-fluorophenoxy)-2-methylphenyl)-1H-pyrazole-4-carbonyl)-5-methyl-1H-indol-6-yl)-1,3,8-triazaspiro[4.5]decane-2,4-dione]
4.4	0.87	17	Cc1cc2cc(C(=O)c3cnn(-c4ccc(Oc5ccccc5F)cc4C)c3N)[nH]c2cc1N1C(=O)NC(C)(C)C1=O [Example 5-1-356, 3-[2-[5-amino-1-[4-(2-fluorophenoxy)-2-methylphenyl]pyrazole-4-carbonyl]-5-methyl-1H-indol-6-yl]-5,5-dimethylimidazolidine-2,4-dione]

Reference: patent US10479780B2, “Aminopyrazole derivatives” (Chugai Seiyaku Kabushiki Kaisha, priority 2015, dated 2019)
